Molecules are shown by their SMILES.

Assay [1] has as its target hNET (Homo sapiens (Human), UniProt P23975). As to the kind of experiment: NET radioligand binding assay ([3H]nisoxetine, HEK-293 membranes). To be noted: (+)-enantiomers. Here is the method:
Recombinant HEK-293 cells expressing either the hSERT, hDAT, or hNET proteins were harvested from T-175 flasks as follows. The medium was removed from the flasks and the cells rinsed with HBSS without Ca and without Mg. The cells were then incubated for 5-10 minutes in 10 mM Tris-Cl, pH 7.5, 5 mM EDTA before the cells were lifted with a combination of pipetting and scraping, as needed. The cell suspension was collected into centrifuge bottles and homogenized for 30 seconds with a Polytron homogenizer. The suspension was centrifuged for 30 minutes at 32,000×g, 4° C. The supernatant was decanted and the pellet resuspended and homogenized in 50 mM Tris-Cl, pH 7.5, 1 mM EDTA for 10 seconds. The suspension was then centrifuged again for 30 minutes at 32,000×g, 4° C. The supernatant was decanted and the pellet resuspended in 50 mM Tris-Cl, pH 7.5, 1 mM EDTA and briefly homogenized. A Bradford assay (Bio-rad) was performed and the membrane preparation diluted to 2 mg/ml with 50 mM Tris-Cl, pH 7.5, 1 mM EDTA. Aliquots were prepared, and then frozen and stored at −80° C.
Compounds were dissolved in 100% DMSO at a concentration 100 times the desired highest assay concentration, serially diluted 1:3 in 100% DMSO, and 1.0 μl/well of each solution was dispensed to a Nunc polypropylene, round bottom, 384-well plate. 100% inhibition is defined with 1.0 μl/well of 10 mM desipramine dissolved in DMSO. 50 μl/well of a 2× membrane preparation (0.4 mg/ml in 50 mM Tris-Cl, pH 7.5, 120 mM NaCl, 5 mM KCl) and 50 μl/well of a 2× radioligand solution (4 nM [^3H]nisoxetine in 50 mM Tris-Cl, pH 7.5, 120 mM NaCl, 5 mM KCl) were added to the well and the reaction incubated for 1 hour at room temperature. The contents of the assay plate were then transferred to a Millipore MultiscreenHTS GF/B filter plate which was pretreated with 0.5% PEI for at least one hour. The plate was vacuum filtered and washed with 7 washes of 100 μl/well 50 mM Tris-Cl, pH 7.5, 120 mM NaCl, 5 mM KCl chilled to 4° C. The filtration and washing were completed in less than 90 seconds. The plates were air-dried overnight, 12 μl/well of MicroScint scintillation fluid added, and the plates counted in a Trilux.
The raw data was normalized to percent inhibition using control wells defining 0% (DMSO only) and 100% (selective inhibitor) inhibition which were run on each plate. Each plate was run in triplicate, and the concentration response curve thus generated was fit using the four-parameter dose response equation, Y=Bottom+(Top-Bottom)/(1+10^((LogIC50−X)*HillSlope)) in order to determine the IC50 value for each compound. The radioligand concentration chosen for each assay corresponds to the Kd concentration determined through saturation binding analysis for each assay.

The test system of assay [2] is SERT. As to the kind of experiment: Occupancy assay, ex vivo binding in brain tissue, SERT. The source says:
(§1) The general procedure for brain tissue collection and transporter occupancy assessment is briefly described as follows. Mice were sacrificed by asphyxiation in CO2, rats by decapitation and dogs by IV injection of euthanasia solution. For mice and rats, after the brains were removed from the skull, the forebrain tissue (removal of the brainstem and cerebellum) was used for SERT, NET, and DAT occupancy assessment. In dogs, the striatum was dissected for DAT occupancy and the remaining forebrain tissue (without the striatum, brainstem, and cerebellum) was used for SERT and NET occupancy assessment. The brain tissues were frozen in chilled isopentane and stored at −80° C. until homogenization.
(§2) The brain tissues were thawed and then homogenized using a polytron homogenizer (Kinematica). Sample aliquots were frozen immediately and stored at −80° C. Protein content was measured for each sample using a Coomassie protein assay kit (Pierce).
On the day of ex vivo binding for occupancy assessment, frozen sample aliquots were thawed and needle homogenized, and 100 μg of the tissue was incubated for SERT, NET, and DAT binding under assay conditions summarized in Table 2. After incubation, the reactions were terminated by the addition of ice-cold assay buffer and rapid filtration through a Brandel Cell Harvester using FPXLR-196 filters. The filters were washed twice with ice-cold incubation buffer, punched into a clear plate prior to the addition of 200 ul scintillation fluid per well. Radioligand was measured using a Wallac Microbeta liquid scintillation counter.
The specific binding was calculated by subtracting the value of the non-specific binding from that of the total binding in each sample. The percent occupancy was calculated as (1−specific binding in drug treated/specific binding in vehicle treated)×100%. For estimation of in vivo occupancy EC50 (total plasma concentration of compound producing 50% occupancy), plots of occupancy values versus plasma concentrations were fitted to a one-site binding model using nonlinear regression according to the following equation: % Occupancy=Emax*C/(EC50+C) where Emax is the maximal specific binding, C is the drug concentration, and EC50 is the total plasma concentration required for 50% binding site occupancy. Nonlinear regression was performed using GraphPad Prism version 3.00 (GraphPad Software, San Diego, Calif.).

Assay [3] concerns NET. As to the kind of experiment: Occupancy assay, ex vivo binding in brain tissue, NET.
Description: as §1, §2
On the day of ex vivo binding for occupancy assessment, frozen sample aliquots were thawed and needle homogenized, and 100 μg of the tissue was incubated for SERT, NET, and DAT binding under assay conditions summarized in Table 2. […] The filters were washed twice with ice-cold incubation buffer, punched into a clear plate prior to the addition of 200 ul scintillation fluid per well. Radioligand was measured using a Wallac Microbeta liquid scintillation counter.
The specific binding was calculated by subtracting the value of the non-specific binding from that of the total binding in each sample. The percent occupancy was calculated as (1−specific binding in drug treated/specific binding in vehicle treated)×100%. […] Nonlinear regression was performed using GraphPad Prism version 3.00 (GraphPad Software, San Diego, Calif.).

Chain of hNET (P23975 whole entry): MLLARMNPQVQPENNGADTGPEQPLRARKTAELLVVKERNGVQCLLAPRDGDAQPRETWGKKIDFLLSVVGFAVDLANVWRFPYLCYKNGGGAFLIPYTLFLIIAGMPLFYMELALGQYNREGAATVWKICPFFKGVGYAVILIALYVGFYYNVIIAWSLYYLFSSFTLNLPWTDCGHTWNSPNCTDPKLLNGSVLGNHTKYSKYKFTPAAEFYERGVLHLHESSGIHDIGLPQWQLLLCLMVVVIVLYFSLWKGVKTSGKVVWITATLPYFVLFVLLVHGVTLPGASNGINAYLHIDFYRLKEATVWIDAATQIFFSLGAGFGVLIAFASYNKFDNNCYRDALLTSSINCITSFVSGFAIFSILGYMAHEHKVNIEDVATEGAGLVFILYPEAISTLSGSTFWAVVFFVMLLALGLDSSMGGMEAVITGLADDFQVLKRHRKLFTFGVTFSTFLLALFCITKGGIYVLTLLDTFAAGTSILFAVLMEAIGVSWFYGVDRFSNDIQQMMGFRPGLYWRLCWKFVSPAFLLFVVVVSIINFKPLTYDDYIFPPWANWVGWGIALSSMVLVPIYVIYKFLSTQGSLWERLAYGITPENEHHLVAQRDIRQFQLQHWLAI

Broadly, the IC50 is the point on the concentration scale where inhibition reaches its midpoint. Regarding `CC1(C)NCC(c2ccc(Cl)c(Cl)c2)c2ccc(-c3ccc4ncnn4c3)cc21` (stereo not drawn) [Example 40, 4-(3,4-dichlorophenyl)-7-([1,2,4]triazolo[1,5-a]pyridin-6-yl)-1,1-dimethyl-1,2,3,4-tetrahydroisoquinoline], the IC50 in assay [1] turned out to be 51 nM. For the same molecule, in assay [2] (dose 3 mg/kg, time point 3 h), the “SERT Occupancy %” value worked out at 74%. In addition, the “NET Occupancy %” value in assay [3] (dose 3 mg/kg, time point 3 h) was found to be 1%.
`Nc1ccc(-c2ccc3c(c2)CNCC3c2ccc(Cl)c(Cl)c2)nn1` (stereo not drawn) [Example 34, 6-(4-(3,4-dichlorophenyl)-1,2,3,4-tetrahydroisoquinolin-7-yl)pyridazin-3-amine]: the IC50 in assay [1] turned out to be 22.9 nM. The “SERT Occupancy %” value in assay [2] (dose 1 mg/kg, time point 1 h) stood at 10%. The “NET Occupancy %” value in assay [3] (dose 1 mg/kg, time point 1 h) is reported as 11%.
Consider `CC1(C)NCC(c2ccc(Cl)c(Cl)c2)c2ccc(-c3ccc(N)nn3)cc21` (stereo not drawn) [Example 13, 4-(3,4-dichlorophenyl)-7-(6-aminopyridazin-3-yl)-1,1-dimethyl-1,2,3,4-tetrahydroisoquinoline], for which the 50% inhibitory concentration (IC50) in assay [1] amounted to 97 nM. In addition, in assay [2] (dose 3 mg/kg, time point 3 h), the “SERT Occupancy %” value is given as 55%. Moreover, the “NET Occupancy %” value in assay [3] (dose 3 mg/kg, time point 3 h) is on record as 5%.
As to `Cc1noc(C)c1-c1ccc2c(c1)CNCC2c1ccc(Cl)c(Cl)c1` (stereo not drawn) [Example 25, 4-(4-(3,4-dichlorophenyl)-1,2,3,4-tetrahydroisoquinolin-7-yl)-3,5-dimethylisoxazole], the IC50 in assay [1] came out at 195 nM. Besides, in assay [2] (dose 1 mg/kg, time point 3 h), the “SERT Occupancy %” value was 50%. For the same molecule, the “NET Occupancy %” value in assay [3] (dose 1 mg/kg, time point 3 h) amounted to 0%.
Take `Clc1ccc(C2CNCc3cc(-c4cccnn4)ccc32)cc1Cl` (stereo not drawn) [Example 33, 4-(3,4-dichlorophenyl)-7-(pyridazin-3-yl)-1,2,3,4-tetrahydroisoquinoline]: the IC50 in assay [1] worked out at 26.4 nM. Further, in assay [2] (dose 1 mg/kg, time point 1 h), the “SERT Occupancy %” value is given as 49%. Also, the “NET Occupancy %” value in assay [3] (dose 1 mg/kg, time point 1 h) is on record as 3%.
For `CC1(C)NCC(c2ccc(Cl)c(Cl)c2)c2ccc(-c3cccnn3)cc21` (single isomer, unassigned) [Example 9, 4-(3,4-dichlorophenyl)-1,1-dimethyl-7-(pyridazin-3-yl)-1,2,3,4-tetrahydroisoquinoline] the same measures were 133 nM, 60% and 20%.
For `FC(F)Oc1ccc(-c2ccc3c(c2)CNCC3c2ccc(Cl)c(Cl)c2)nn1` (stereo not drawn) [Example 12, 4-(3,4-dichlorophenyl)-7-(6-(difluoromethoxy)pyridazin-3-yl)-1,2,3,4-tetrahydroisoquinoline], the concentration for half-maximal inhibition (IC50) in assay [1] is 18.8 nM. The “SERT Occupancy %” value in assay [2] (dose 1 mg/kg, time point 3 h) was 82%. The “NET Occupancy %” value in assay [3] (dose 1 mg/kg, time point 3 h) turned out to be 46%.

(Values after patent US9034899B2, “Aryl, heteroaryl, and heterocycle substituted tetrahydroisoquinolines and use thereof” (Albany Molecular Research, Inc., priority 2009, dated 2015).)
